Test results from the NIST ThermoML archive (doi:10.1021/je049571n).
± gives the expanded uncertainty stated by the source.

Columns and labels:
[1] = Liquid; for mass density: 101.33 kPa
[2] = refractive index (Na D-line) (dimensionless); details: 101.33 kPa, Liquid, Standard Abbe refractometry

SMILES	mass density ([1]; 298.2 K) [kg/m3]	Normal boiling temperature [1] [°C]	refractive index ([2]; 293.2 K)	mass density ([1]; 293.2 K) [kg/m3]	refractive index ([2]; 298.2 K)
CC(=O)O [acetic acid]	1047.22 ± 0.28	118.1 ± 0.2	1.3719 ± 0.0012		
COC(=O)CCCC(=O)OC [dimethyl pentanedioate]		214.1 ± 0.2		1087.74 ± 0.65	1.4242 ± 0.0012
